The values that follow come from article PMC7391724 (Scientific Reports, 2020).

Experiment [1] has as its system ST502 patient derived xenograft. Briefly: ST502 triple negative breast PDX model. The format is in vivo, nu/nu mice. The method, then:
(§1) Patient derived xenograft (PDX) studies were performed at South Texas Accelerated Research Therapeutics (START, San Antonio, TX). Patient tumor tissues were obtained with patients’ informed consent and PDX models were generated after multiple generations in mice. […] Tumor fragments were harvested from host animals and implanted into 6–12 weeks old female athymic nude mice (Crl:NU(NCr)-Foxn1nu). Intravenous treatments were initiated when ST502 (triple negative breast) tumors were approximately 112–333 mm^3, ST738 (triple negative breast) tumors were 112–300 mm^3, ST040 (endometrial) tumors were 78–333 mm^3, and ST070 (ovarian) tumors were 131–266 mm^3 in volume.
(§2) Animals in the control groups received no treatment. Growth of each subcutaneous tumor was followed by measuring the tumor 3 times per week during treatment and twice per week thereafter, until a maximum volume of 1,500 mm^3 for mice and 15,000 mm^3 for rats were reached. Tumors were measured in two perpendicular directions using Vernier calipers, and their volumes were calculated as V = 0.5 × L × W^2, where L = measurement of longest axis in mm and W = measurement of axis perpendicular to L in mm[16]. As a general measure of gross toxicity, changes in body weights were determined on the same schedule as tumor volume measurements. Survival of animals was monitored daily. Animals that were moribund (or unable to reach food or water) were euthanized by CO2 asphyxiation. Individual tumor response endpoints were reported in terms of tumor volume change. A partial response (PR) was defined as volume regression > 50% but with measurable tumor (> 2 mm^3) remaining at all times. Complete response (CR) was defined as a disappearance of measurable tumor mass (< 2 mm^3) at some point within 90 days after tumor implantation. Cures were defined as CRs without tumor regrowth within the 90-day study time frame.

Experiment [2] deals with ST738 patient derived xenograft. Briefly: ST738 triple negative breast PDX model. The format is in vivo, nu/nu mice. To be noted: Eribulin mesylate 1 mg/kg SIW x 2 weeks, n=7. The method, then: as §1, §2
Another experiment has as its system KB-CR tumors. Briefly: Cisplatin-resistant KB-CR tumor xenograft in nu/nu mice. The format is in vivo. The method, then: (§3) Four- to eight-week-old female nu/nu mice and rats (Harlan Sprague Dawley, Inc.), were maintained on a standard 12-h light–dark cycle and fed ad libitum with a low-folate chow (Harlan Teklad diet #TD.01013, Madison, WI) for the duration of dosing and 1 week post dosing schedule. Mice and rats were then switched to Teklad Global 18% Rodent diet (Harlan Teklad diet #2018S) during the monitoring phase of the study. Parental KB, KB-CR2000 or KB-PR10 cells (1 × 10^6/100 µL per nu/nu mouse and 5 × 10^6/200 µL per nu/nu rat) were injected into the subcutis of the dorsal medial area. Mice were divided into groups of 5 and rats in groups of 3–4, and freshly prepared test articles were injected through the lateral tail vein under sterile conditions in a volume of 200 μL/20 g of PBS. In mice, intravenous treatments typically initiated on day 7 PTI when KB tumors were approximately 111–168 mm^3 in volume, on day 5 PTI when the KB-PR tumors were about 205–243 mm^3, and on day 6 PTI when the KB-CR tumors were around 98 to 168 mm^3. Treatments in rats were started on day 10 PTI when KB tumors were approximately 412–704 mm^3 in volume.
as §2

The test system of a further experiment is KB-PR tumors. Briefly: Paclitaxel-resistant KB-PR tumor xenograft in nu/nu mice. It counts as in vivo. As to the method:
as §3, §2

The test system of experiment [3] is ST040 patient derived xenograft. Briefly: ST040 endometrial PDX model. The format is in vivo, nu/nu mice. As to the method: as §1, §2
Experiment [4] has as its system ST070 patient derived xenograft. As to the kind of experiment: ST070 ovarian PDX model. The format is in vivo, nu/nu mice. As to the method: as §1, §2
[5] abbreviates: Eribulin mesylate 1 mg/kg SIW x 2 weeks, n=7.
[6] abbreviates: Cisplatin 3 mg/kg BIW x 2 weeks, n=5.
The mark [7] stands for this setting: Paclitaxel 20 mg/kg TIW x 2 weeks, n=5.
Where [8] appears, read: Paclitaxel 15 mg/kg SIW x 2 weeks, n=3.
[9] abbreviates: paclitaxel 15 mg/kg SIW x 2 weeks.
The mark [10] stands for this setting: Paclitaxel 15 mg/kg SIW x 2 weeks, n=7.

Each structure is given as a SMILES string. Structures can show the parent of a compound that is named as a salt.

Turning to `C=C1C[C@@H]2CC[C@@]34C[C@H]5O[C@H]6[C@@H](O3)[C@H]3O[C@H](CC[C@@H]3O[C@H]6[C@H]5O4)CC(=O)C[C@@H]3[C@@H](OC)[C@@H](C[C@H](O)CN)O[C@H]3C[C@H]3O[C@@H](CC[C@@H]1O2)C[C@@H](C)C3=C` [eribulin mesylate], the “CR (complete response), number of animals” value (“CR (complete response)” below) in experiment [1] (setting [5]) and in experiment [2] was 0 each time. Besides, the “Cures, number of animals” value in experiment [1] (setting [5]) and in experiment [2] was 0 each time. Also, the “PR (partial response), number of animals” value is “one” in experiment [1] (setting [5]); 1 in experiment [1] (Eribulin mesylate 1 mg/kg SIW x 2 weeks, n=7, listed as Eribulin mesylate); “two” in experiment [2]; 2 in experiment [2] (listed as Eribulin mesylate). In addition, in experiment [1] (eribulin mesylate 1 mg/kg SIW x 2 weeks), the antitumor activity result is recorded as “did not display significant anti-tumor activity”.

On to `N.N.[Cl][Pt][Cl]` [cisplatin], for which, in the experiment with KB-CR tumors (setting [6]), the “CR (complete response)” value was 0; the “Cures, number of animals” value came to 0; the “PR (partial response), number of animals” value turned out to be 0. Moreover, the antitumor effect result in the experiment with KB-CR tumors (cisplatin 3 mg/kg BIW x 2 weeks) is “very little effect”.

For the compound `CC(=O)O[C@H]1C(=O)[C@@]2(C)[C@H]([C@H](OC(=O)c3ccccc3)[C@]3(O)C[C@H](OC(=O)[C@H](O)[C@@H](NC(=O)c4ccccc4)c4ccccc4)C(C)=C1C3(C)C)[C@]1(OC(C)=O)CO[C@@H]1C[C@@H]2O` [paclitaxel], the “CR (complete response)” value (in the experiment with KB-PR tumors (setting [7]); in experiment [3] (setting [8]); in experiment [4] (setting [10])) was 0 throughout. For the same compound, the “Cures, number of animals” value (in the experiment on KB-PR tumors (setting [7]); in experiment [3] (setting [8]); in experiment [4] (setting [10])) was 0 in each case. Moreover, the “PR (partial response), number of animals” value (with KB-PR tumors (setting [7]); in experiment [3] (setting [8]); in experiment [4] (setting [10])) was 0 each time. Moreover, the values for the antitumor effect result (with KB-PR tumors (paclitaxel 20 mg/kg TIW x 2 weeks); in experiment [3] (setting [9]); in experiment [4] (setting [9])) were “very little effect”, “modest tumor growth delay” and “essentially inactive”, respectively.
